Data as given in US20090286722A1 (priority 2005, published 2009).

How the values were obtained:
[1] = test system: ob/ob mice; assay: 24 hour plasma glucose and insulin profile after a single dose in non-fasted ob/ob mice; format: in vivo
From the text: Dose of 12.5 nmol kg^−1 was chosen to evaluate the longer-term duration of action of a single dose of native or fatty acid derivatised GIP in non-fasted ob/ob mice.

[2] = molecular target: dipeptidyl peptidase IV (Sus scrofa, UniProt P22411); assay: DPP IV degradation, % intact peptide by HPLC; format: in vitro ADME, porcine; conditions: pig, purified porcine dipeptidyl peptidase IV (DPP IV), 37° C., pH 7.8
Sequence of dipeptidyl peptidase IV (P22411 whole entry): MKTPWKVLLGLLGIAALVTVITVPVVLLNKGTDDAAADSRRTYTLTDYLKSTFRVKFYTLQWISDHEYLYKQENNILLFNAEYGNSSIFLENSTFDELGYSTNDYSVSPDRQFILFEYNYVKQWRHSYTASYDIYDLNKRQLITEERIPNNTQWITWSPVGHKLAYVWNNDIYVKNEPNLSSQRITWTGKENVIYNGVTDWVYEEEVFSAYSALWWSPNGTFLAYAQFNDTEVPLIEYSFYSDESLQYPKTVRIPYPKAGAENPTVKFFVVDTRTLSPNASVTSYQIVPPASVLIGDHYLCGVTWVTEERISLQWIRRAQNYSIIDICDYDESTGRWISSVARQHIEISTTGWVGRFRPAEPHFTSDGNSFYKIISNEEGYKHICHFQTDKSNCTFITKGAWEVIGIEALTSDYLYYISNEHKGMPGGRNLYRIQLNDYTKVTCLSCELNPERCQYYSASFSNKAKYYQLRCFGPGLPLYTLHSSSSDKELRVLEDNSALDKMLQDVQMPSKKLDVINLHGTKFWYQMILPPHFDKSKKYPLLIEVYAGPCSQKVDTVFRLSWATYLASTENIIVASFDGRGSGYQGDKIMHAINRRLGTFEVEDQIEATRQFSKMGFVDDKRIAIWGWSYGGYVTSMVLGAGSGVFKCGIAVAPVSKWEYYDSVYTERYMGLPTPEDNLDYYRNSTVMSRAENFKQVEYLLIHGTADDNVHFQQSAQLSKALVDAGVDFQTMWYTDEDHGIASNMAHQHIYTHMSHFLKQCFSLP
Method: (§1) HPLC peak area data were used to calculate the percentage intact peptide remaining at the various time points during the incubation.

[3] = molecular target: purified porcine dipeptidyl peptidase IV (Sus scrofa, UniProt P22411); assay: DPP IV degradation, % intact peptide by HPLC; format: in vitro ADME; conditions: 37° C., pH 7.8
Sequence of purified porcine dipeptidyl peptidase IV (P22411 whole entry): as above
Method: as §1

[4] = test system: ob/ob mice; assay: Glucose tolerance 4 hours after peptide administration in 18 hour fasted ob/ob mice; format: in vivo; conditions: 25 nmoles/kg, glucose 18 mmoles/kg
[5] = test system: DPP IV; conditions: cited: O'Harte 2002; Irwin 2005; cited from earlier work
[6] = test system: ob/ob mice; assay: Once daily i.p. injection for 14 days in ob/ob mice
Method: (§2) Obese diabetic (ob/ob) mice derived from the colony maintained at Aston University, UK (23) were used at 12-16 weeks of age. […] Drinking water and standard rodent maintenance diet (Trouw Nutrition, Cheshire, UK) were freely available.
(§3) Food intake and body weight were recorded daily from 5 days before commencement of the treatment regimes. Plasma glucose and insulin concentrations (10:00 h) were monitored at 2-4 day intervals. […] All acute tests were commenced at 10:00 h. […] Serum samples were taken for determination of glucagon concentrations. All other blood samples were collected from the cut tip of the tail vein of conscious mice into chilled fluoride/heparin coated glucose microcentrifuge tubes (Sarstedt, Nümbrecht, Germany) at the times indicated in the Figures. Blood samples were immediately centrifuged using a Beckman microcentrifuge (Beckman Instruments, Galway, Ireland) for 30 seconds at 13,000×g. The resulting plasma was then aliquoted into fresh tubes and stored at −20° C. prior to glucose and insulin determinations.

[7] = test system: ob/ob mice; assay: Acute glucose lowering and insulin release, peptide given i.p. with glucose to 18 hour fasted ob/ob mice
Method: as §2, §3

[8] = after 14 daily injections, glucose 18 mmoles/kg
[9] = after 14 days, glucose 18 mmoles/kg with native GIP
[10] = 25 nmol/kg i.p. with glucose 18 mmol/kg

SMILES: CCCCCCCCCCCCCCCC(=O)NCCCC[C@H](NC(=O)[C@H](Cc1c[nH]c2ccccc12)NC(=O)[C@H](CC(=O)O)NC(=O)[C@H](CC(N)=O)NC(=O)[C@H](CCCCN)NC(=O)[C@H](CCCCN)NC(=O)CNC(=O)[C@H](CCCCN)NC(=O)[C@H](CCC(N)=O)NC(=O)[C@H](C)NC(=O)[C@H](CC(C)C)NC(=O)[C@H](CC(C)C)NC(=O)[C@H](Cc1c[nH]c2ccccc12)NC(=O)[C@H](CC(N)=O)NC(=O)[C@@H](NC(=O)[C@H](Cc1ccccc1)NC(=O)[C@H](CC(=O)O)NC(=O)[C@H](CCC(N)=O)NC(=O)[C@H](CCC(N)=O)NC(=O)[C@H](Cc1c[nH]cn1)NC(=O)[C@@H](NC(=O)[C@H](CCCCN)NC(=O)[C@H](CC(=O)O)NC(=O)[C@H](CCSC)NC(=O)[C@H](C)NC(=O)[C@@H](NC(=O)[C@H](CO)NC(=O)[C@H](Cc1ccc(O)cc1)NC(=O)[C@H](CC(=O)O)NC(=O)[C@H](CO)NC(=O)[C@@H](NC(=O)[C@H](Cc1ccccc1)NC(=O)[C@@H](NC(=O)CNC(=O)[C@H](CCC(=O)O)NC(=O)[C@H](C)NC(=O)[C@@H](N)Cc1ccc(O)cc1)[C@@H](C)O)[C@@H](C)CC)[C@@H](C)CC)[C@@H](C)CC)C(C)C)C(=O)N[C@@H](Cc1c[nH]cn1)C(=O)N[C@@H](CC(N)=O)C(=O)N[C@H](C(=O)N[C@H](C(=O)N[C@@H](CCC(N)=O)C(=O)O)[C@@H](C)O)[C@@H](C)CC [GIP(LysPAL^37)]
- effect on plasma glucose over 24 hours ([1]; single 12.5 nmol/kg i.p.): significant (P<0.01) and sustained decrease
- glucose concentrations at 24 hours and AUC values versus native GIP or saline treated controls ([1]; single 12.5 nmol/kg i.p.): significantly less
- insulin concentrations from 4 to 24 hours versus controls ([1]; single 12.5 nmol/kg i.p.): not significantly different
- time for which decline of plasma glucose was sustained after single injection ([1]; single injection): at least 24 hours
- remaining at 2 h, 2 mM ([2]; 2 h incubation with DPP IV (5 mU), read-out: % Intact peptide remaining after time (h) 2): 100%
- remaining at 8 h, 2 mM ([2]; 8 h incubation with DPP IV (5 mU), read-out: % Intact peptide remaining after time (h) 8): 100%
- remaining at 24 h, 2 mM ([2]; 24 h incubation with DPP IV (5 mU), read-out: % Intact peptide remaining after time (h) 24): 100%
- % Intact peptide remaining after time (h) 0 ([3]; 0 h incubation with DPP IV (5 mU)): 100%
- % Intact peptide remaining after time (h) 24 ([3]; 24 h incubation with DPP IV (5 mU)): remained fully intact
- insulinotropic properties 4 hours after administration [4]: less evident
- reduction of glycaemic excursion following i.p. glucose 4 hours after administration ([4]; versus saline): 18%
- resistance to DPP IV degradation [5]: increased resistance to DPP IV degradation
- effect on body weight ([6]; 25 nmoles/kg/day, 14 days): no effect
- effect on food intake ([6]; 25 nmoles/kg/day, 14 days): no effect
- non-fasting plasma insulin concentrations (tendency towards elevated) ([6]; 25 nmoles/kg/day, 14 days): did not achieve statistical significance
- non-fasting plasma glucose concentrations at 14 days versus control ([6]; 25 nmoles/kg/day, day 14): significantly (p<0.05) lowered
- plasma glucagon on day 14 versus control ([6]; 25 nmoles/kg/day, day 14): no differences observed
- islet area compared with saline-treated ob/ob mice ([6]; after 14 daily injections): significant increases
- number of pancreatic islets compared with saline-treated ob/ob mice ([6]; after 14 daily injections): significant increases
- pancreatic insulin content compared with saline-treated controls ([6]; after 14 daily injections): did not affect
- pancreatic weight compared with saline-treated controls ([6]; after 14 daily injections): did not affect
- insulinotropic response following i.p. glucose versus control [6, 8]: augmented
- overall glycaemic excursion after i.p. glucose versus control [6, 8]: significantly reduced
- plasma glucose response to 15 minutes feeding, at 15 minutes ([6]; after 14 days, 18 hours fasted): significantly lowered
- plasma insulin response to 15 minutes feeding, at 15 minutes ([6]; after 14 days, 18 hours fasted): significantly increased
- overall insulinotropic response to feeding ([6]; after 14 days, 18 hours fasted, AUC 0-105 min): overall increased insulinotropic response
- hypoglycemic action of insulin (insulin sensitivity), AUC and post injection values versus controls ([6]; after 14 days, insulin 50 U/kg i.p.): significantly augmented
- glycaemic excursions after glucose with native GIP compared to control animals [6, 9]: significantly decreased
- overall glucose-dependent insulinotropic response to native GIP [6, 9]: significantly augmented
- adverse effects following long-term administration ([6]; long-term administration): No adverse effects were observed
- glucose AUC response compared to native GIP [7, 10]: significant reduction
- plasma glucose concentrations and AUC (0-60 min) compared to glucose alone [7, 10]: significantly reduced
- overall enhancement of insulin release over native GIP ([7]; 25 nmol/kg i.p. with glucose, insulin AUC 0-60 min): 2.7 fold
